# According to paper PMC11714206, “Massively Parallel Screening of Toll/Interleukin‐1 Receptor (TIR)‐Derived Peptides Reveals Multiple Toll‐Like Receptors (TLRs)‐Targeting Immunomodulatory Peptides” (Advanced Science, 2024):
# Target: T1, MAL^TIR (Homo sapiens, UniProt P58753)
# T1 construct: MAL (residues 79–221); 6xHis; made in house; host or cells: E. coli BL21 (DE3)
# Experiment: T‐Surf phage library (P8 and P3) selection against MAL^TIR, four rounds, NGS read counts
# Assay type: binding
# Conditions: for P3_MAL Rank (after) / P3_MAL Rank (before): P3 library; for P8_MAL Rank (after) / P8_MAL Rank (before): P8 library; for Population: 4th round of selection against MAL TIR, share of NGS reads
# Outline: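 Read counts come from NGS of phage pools after the fourth selection round, barcoded by 20-cycle PCR and filtered for quality ≥30. Each round: phage incubated 1 h at RT on immobilised TIR protein (5 µg mL^−1, BSA-blocked), washed, HCl-eluted and amplified in E. coli TG1.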
# [1] = selection against MAL, rank after grouping
# [2] = selection against MAL, rank before grouping
# [3] = P8_MAL: rank by count after grouping
# [4] = P8_MAL: rank by count before grouping
# [5] = P3_MAL pool: P3 T-Surf phage library
# [6] = selection against MAL, rank by count after grouping
# [7] = selection against MAL, rank by count before grouping
# [8] = selection against MAL TIR, rank by count after grouping
# [9] = selection against MAL TIR, rank by count before grouping
# [10] = P3_MAL: rank by count after grouping
# [11] = P3_MAL: rank by count before grouping
# [12] = 4R selection against MAL, rank after grouping
# [13] = 4R selection against MAL, rank before grouping
# [14] = P8_MAL pool: P8 T-Surf phage library
# T1 sequence (P58753 79-221): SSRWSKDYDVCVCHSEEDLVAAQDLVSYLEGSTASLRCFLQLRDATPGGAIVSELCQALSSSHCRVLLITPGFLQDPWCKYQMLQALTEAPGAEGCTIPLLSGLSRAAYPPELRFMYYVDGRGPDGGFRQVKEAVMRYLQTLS
sequence,measurement,setting,value
RGFLSHLRQHLKAKDH,P3_MAL Rank (after),[1],497
same,P3_MAL Rank (before),[2],2386
LFLWECLKQLLRSDGR,P8_MAL Rank (after),[1],507
same,P8_MAL Rank (before),[2],2144
RNLVAYLFQALETKGI,Rank (after),[3],416
same,Rank (before),[4],2243
YAFTSHLHRYLVQRGV,Population,[5],0.00827%
RAFVAHPQELIQKKQQ,P3_MAL Rank (after),[6],739
same,P3_MAL Rank (before),[7],2454
WFYNHLVSLFLRDTKV,P8_MAL Rank (after),[1],520
same,P8_MAL Rank (before),[2],1306
AFFWDSCVPCWANRR,P8_MAL Rank (after),[8],258
same,P8_MAL Rank (before),[9],1666
WFYERLVSLIRRDIKV,P8_MAL Rank (after),[6],694
same,P8_MAL Rank (before),[7],1219
DWCLSKLSQHTLKREK,Rank (after),[10],481
same,Rank (before),[11],1908
YAFTGHLRRYMVQRGV,P3_MAL Rank (after),[1],517
same,P3_MAL Rank (before),[2],1370
YAFTGHLHRYLVQLGV,Population,[5],0.00676%
AFFLAQLKSVLGKPTM,P8_MAL Rank (after),[1],533
same,P8_MAL Rank (before),[2],1578
AFFWTQLSTVMGKPTM,P8_MAL Rank (after),[1],527
same,P8_MAL Rank (before),[2],1722
LFFGASLKQLLRSDGR,P8_MAL Rank (after),[12],580
same,P8_MAL Rank (before),[13],2134
RFFQNKMRYHLQQLQH,P3_MAL Rank (after),[1],487
same,P3_MAL Rank (before),[2],2617
RGLLSQLRHHLQAKDH,P3_MAL Rank (after),[1],578
same,P3_MAL Rank (before),[2],2421
KLFWEKFKFFLPTPSR,P8_MAL Rank (after),[8],201
same,P8_MAL Rank (before),[9],2708
WFYERLVSLILRNTKV,Population,[14],0.00309%
LFFWESLKQRLRSDVR,P8_MAL Rank (after),[8],193
same,P8_MAL Rank (before),[9],2118
WRCLNFVPRCIMCCR,P3_MAL Rank (after),[1],482
same,P3_MAL Rank (before),[2],1287
AFLYTFMINLTHPTTF,Rank (after),[3],126
same,Rank (before),[4],1889
RGFMSHLRHPLQAKDH,P3_MAL Rank (after),[12],616
same,P3_MAL Rank (before),[13],2412
AFLYTFLFNLTHQTNS,P8_MAL Rank (after),[12],590
same,P8_MAL Rank (before),[13],1883
AFFWAQLKSVLRTQTM,P8_MAL Rank (after),[6],696
same,P8_MAL Rank (before),[7],1633
WFYERLVCLLLRDSKV,Rank (after),[3],458
same,Rank (before),[4],1279
AFFWAQLKSVLGNPTL,Population,[14],0.00309%
WFYGRLVSLMLRDAKR,P8_MAL Rank (after),[12],595
same,P8_MAL Rank (before),[13],1130
WFYERLGSLMLRDTNV,P8_MAL Rank (after),[1],555
same,P8_MAL Rank (before),[2],1247
TFLGPLYNALVQAGIP,Rank (after),[3],120
same,Rank (before),[4],2553
PEKDNGGANAFSNNIV,P3_MAL Rank (after),[8],200
same,P3_MAL Rank (before),[9],2645
VRHNFIGYLRDALQHR,Rank (after),[10],94
same,Rank (before),[11],94
LFFWGSLKQLLRNDGR,Rank (after),[3],128
same,Rank (before),[4],2061
YTALTNSGFHTFLDNE,P3_MAL Rank (after),[8],217
same,P3_MAL Rank (before),[9],1547
WFFPETGKIFEARKTI,P3_MAL Rank (after),[6],709
same,P3_MAL Rank (before),[7],1219
DWFLSKLNQHLLKREK,Rank (after),[10],424
same,Rank (before),[11],1898
KSILDTEARIWGWLFA,P3_MAL Rank (after),[8],248
same,P3_MAL Rank (before),[9],3718
KMQKWKEALHQFHSWV,Rank (after),[10],108
same,Rank (before),[11],233
WHFHVRLCLRKLLQAM,P3_MAL Rank (after),[6],694
same,P3_MAL Rank (before),[7],1290
AFFWEQLRTLLSKPTM,Rank (after),[3],433
same,Rank (before),[4],1673
AFFWAHLKSVLGKPTM,P8_MAL Rank (after),[8],233
same,P8_MAL Rank (before),[9],1601
TFLGHLYNMLIQAGIH,Rank (after),[3],393
same,Rank (before),[4],2595
RGFLSHLRHHLPAKEH,P3_MAL Rank (after),[8],275
same,P3_MAL Rank (before),[9],2395
NQWRNALTKVANLV,Population,[5],0.00639%
same,Rank (after),[10],107
same,Rank (before),[11],124
MSHLYQGLNNRGIFIF,P3_MAL Rank (after),[1],527
same,P3_MAL Rank (before),[2],2944
LQNQWRNALTAAANLSGW,Rank (after),[10],422
same,Rank (before),[11],2140
AFLCTFLINLTHNTTF,Rank (after),[3],185
same,Rank (before),[4],1757
AFLGAQLKSVLGKPTM,P8_MAL Rank (after),[1],554
same,P8_MAL Rank (before),[2],1775
RLLKWKEALHQFQTWL,P3_MAL Rank (after),[6],701
same,P3_MAL Rank (before),[7],2516
KWFWDTLTYAPNLSPH,P3_MAL Rank (after),[12],672
same,P3_MAL Rank (before),[13],3487
HLLKKPRNKRISPFIA,P3_MAL Rank (after),[6],692
same,P3_MAL Rank (before),[7],2803
YAFPFHLFSCPELRGV,P3_MAL Rank (after),[6],742
same,P3_MAL Rank (before),[7],1345
QLIQQWSELHLLQLHL,P8_MAL Rank (after),[12],621
same,P8_MAL Rank (before),[13],2387
WQFHLRLRMHELLQKM,P3_MAL Rank (after),[8],245
same,P3_MAL Rank (before),[9],1314
LQNQWKLALTKVAKLE,P3_MAL Rank (after),[8],236
same,P3_MAL Rank (before),[9],2160
LFFWESLKNVLGSDGR,Rank (after),[3],431
same,Rank (before),[4],2115
SFLGHLYNALVQADIH,P8_MAL Rank (after),[12],664
same,P8_MAL Rank (before),[13],1452
KRFWERLRYMLPHSSL,P3_MAL Rank (after),[8],242
same,P3_MAL Rank (before),[9],3466
SEFIQKMILWMNTKVV,P8_MAL Rank (after),[6],689
same,P8_MAL Rank (before),[7],2438
LFCWESLKQLLRSDCR,Rank (after),[3],169
same,Rank (before),[4],2151
DFLNWFIALKSTVLET,P8_MAL Rank (after),[12],598
same,P8_MAL Rank (before),[13],1976
RRLKWKEALHQLYSWV,P3_MAL Rank (after),[12],668
same,P3_MAL Rank (before),[13],2560
WFYERLVRLFLRDTKV,Rank (after),[3],446
same,Rank (before),[4],1237
RLLNWKEALHQFHSWV,Population,[5],0.00338%
TFLYTFLINLTHPTNY,P8_MAL Rank (after),[12],674
same,P8_MAL Rank (before),[13],2533
KEVEGWRDALTQAAN,P3_MAL Rank (after),[12],599
same,P3_MAL Rank (before),[13],3565
LQNQWKLALTAAANLSGW,P3_MAL Rank (after),[12],629
same,P3_MAL Rank (before),[13],2147
YAFTAICIVIWCSVA,Rank (after),[10],133
same,Rank (before),[11],726
WFYGRLVSLILRDTKV,Population,[14],0.0034%
RNYVAYLFQALANTGI,P8_MAL Rank (after),[12],579
same,P8_MAL Rank (before),[13],2250
SSFREGLWRLPELCKK,Rank (after),[10],430
same,Rank (before),[11],3163
AFLDPFLITLIQASNF,P8_MAL Rank (after),[1],505
same,P8_MAL Rank (before),[2],1908
LQNQWKLALTKVAHLL,P3_MAL Rank (after),[8],219
same,P3_MAL Rank (before),[9],2152
YAFTGHVHRYMVQRGV,P3_MAL Rank (after),[8],229
same,P3_MAL Rank (before),[9],1362
GGFLSHLFDAFSVSR,P3_MAL Rank (after),[6],749
same,P3_MAL Rank (before),[7],1758
NLLYDLLRWLGIRAFL,Rank (after),[3],403
same,Rank (before),[4],2677
PNLRTKVLNYLILTKT,Rank (after),[10],190
same,Rank (before),[11],2747
SLFCNKLRYHLPAPQH,P3_MAL Rank (after),[8],214
same,P3_MAL Rank (before),[9],3027
PNLRTNVLHYLMRTKT,Rank (after),[10],171
same,Rank (before),[11],2695
YAFTGHLNRSLVQRGV,P3_MAL Rank (after),[8],199
same,P3_MAL Rank (before),[9],1440
DWFLSKLSQHSLKLEK,P3_MAL Rank (after),[6],718
same,P3_MAL Rank (before),[7],1894
